{"source": "patent US9120774B2", "about": "(University of Kansas, priority 2009, dated 2015)", "key": {"[1]": {"tested_on": "bovine microvessel endothelial cells (BMECs)", "experiment": "Transport across BMEC monolayers in vitro", "type": "in vitro ADME", "procedure": "In this example, BMECs were grown on 0.4 μm polycarbonate membranes in a petri dish coated with rat tail collagen and fibronectin. […] Briefly, each chamber was filled with 3 mL of PBSA and the donor chamber included KU-1/A4 (10 μM). A temperature of 37° C. was maintained with an external circulating water bath and chamber contents were stirred with Teflon coated magnetic stir bars driven by an external console. At various time points (5, 15, 30, 45, and 90 minutes), 100 μL aliquots were removed from the receiver side and replaced with 100 μL of blank PBSA warmed to 37° C. Samples of the donor solution were also taken for analysis. All samples were analyzed for concentration by RP-HPLC analysis using a Shimadzu dual pump HPLC system equipped with an Alltech (C18, 4.6 mm×150 mm) column. The solvent system consisted of H2O (solvent A) and methanol (solvent B). Analytical samples were eluted with 20% solvent B over 10 minutes at a flow rate of 0.90 mL/min and UV detection at 208 nm. […] The integrity of the cell monolayer was tested post experiment by monitoring the permeability of [^14C]-sucrose, a low permeability marker. Radioactive samples were analyzed by liquid scintillation counting."}, "[2]": {"tested_on": "androgen receptor in LAPC-4 prostate cancer cells", "experiment": "Western blot of androgen receptor in LAPC-4 cells", "type": "cell-based", "details": "LAPC-4 cells (wild type androgen receptor), 24 hours", "procedure": "FIG. 3 (top panel) is a western blot analysis of prostate cancer LNCaP cells treated with KU-1/A4. The bottom panel is a western blot analysis of prostate cancer LAPC-4 cells incubated with KU-1/A4. Actin was used as a control in both assays. […] Western blot analysis of the effects of KU-1/A4 on Hsp90 client proteins in prostate cancer LNCaP cells. Cells were treated with varying concentrations of KU-1/A4 for 24 hours and probed for the androgen receptor (“AR”), protein kinase […] (“AKT”), Hsp90, and actin.\nThe steroid hormone receptors are also dependent upon the Hsp90 protein folding machinery for activation and hormone binding. To determine whether KU-1/A4 had similar effects on the androgen receptor, KU-1/A4 was tested in both a mutated androgen receptor-dependent prostate cancer cell line (LNCaP) and a wild type androgen receptor prostate cancer cell line (LAPC-4). More specifically, the prostate cancer cells were grown in RPMI with 10% fetal calf serum in a standard fashion. Once the cells had reached near confluence, they were treated with vehicle (DMSO) or varying concentrations of KU-1/A4 ranging from 10 nm to 100 μM for 24 hours. Cells were harvested and cell lysates prepared. […] More specifically, Western Blot analysis protein concentrations in serum samples were determined by the Pierce BCA protein assay kit according to the manufacturer's protocol. […]"}, "[3]": {"tested_on": "primary cortical neurons exposed to Aβ25-35", "experiment": "Protection against Aβ-induced toxicity in primary neurons (Live-Dead assay)", "type": "cell-based, rat", "procedure": "In this example, the neuroprotective effects of KU-1/A4 were determined in primary neurons derived from embryonic rat brain exposed to Aβ (10 μM) in the presence or absence of the test compound for 48 hours. The percentage of surviving neurons was determined by labeling with the fluorescent dyes calcein-AM and propidium iodide as previously described. […] The numbers of calcein-labeled live cells and propidium iodide-labeled dead neurons in several fields were visualized via fluorescence microscopy and counted as described.\nBriefly, about 10 to 16 brains were removed from fetuses delivered by cesarean section, and the cortices dissected out. The neurons were isolated and suspended in DMEM/F12 supplemented with 10% FBS and plated on sterile dishes or cover slips coated with 10 μg/ml poly-D-lysine and 5 μg/ml mouse laminin. After 24 hours, the serum-containing medium was removed, and neurons were maintained in Neurobasal medium (Gibco) with 2% B-27 supplements (Gibco). Cells were maintained in culture at 37° C. in 5% CO2 and 97% humidity for 7 to 8 eight days in vitro (DIV) before use. Neurons were exposed to 0.004% DMSO or the indicated concentrations of GA or KU-1/A4 for two hours before the addition of 10 μM Aβ25-35 for either 24 or 48 hours as indicated. Stock solutions of Aβ were prepared in sterile water at a concentration of 1.3 mM and stored at −20° C. Aliquots of the stock solutions were diluted to 1 mM in sterile 50 mM Tris-HCl, pH 7.4, and incubated at 37° C. for 24 hours to promote oligomerization of the peptides prior to treatment of the neurons. The effects of KU-1/A4, GA, Aβ, or the indicated combinations on neuronal viability were determined by monitoring cell survival using the Live-Dead assay as previously described. […] Digital images from 6 fields per dish were captured, and the number of viable (green) and dead (red) cells counted. All experiments were conducted with duplicate dishes from at least two neuronal preparations for each treatment, with about 1,000 cells analyzed/treatment condition. The data are expressed as the fraction of viable cells calculated from the total number of neurons counted under each treatment condition. The significance of differences between cultures exposed to various treatment conditions was determined using Student's t-test."}}, "note": "Where two headings read alike, the source gives them in different places."}
{"smiles": "CO[C@@H]1[C@@H](O)[C@@H](O)[C@H](Oc2ccc3cc(NC(C)=O)c(=O)oc3c2)OC1(C)C", "note": "[KU-1/A4, N-(7-((2R,3R,4S,5R)-3,4-dihydroxy-5-methoxy-6,6-dimethyl-tetrahydro-2H-pyran-2-yloxy)-2-oxo-2H-chromen-3-yl)acetamide]", "values": [{"measurement": "time until abluminal chamber concentration sufficed for full neuroprotective effects", "setting": "[1]; 10 μM in donor chamber", "value": "≤ 15", "unit": "min"}, {"measurement": "concentration in the receiving chamber", "setting": "[1]; 10 μM in donor chamber, 90 minutes", "value": 1200, "unit": "nM"}, {"measurement": "transport across BMECs", "setting": "[1]; 10 μM in donor chamber, up to 90 minutes", "value": "time-dependent linear transport"}, {"measurement": "receiving chamber concentration relative to concentration for 50% neuroprotection", "setting": "[1]; 90 minutes", "value": 200, "unit": "fold"}, {"measurement": "androgen receptor levels", "setting": "[2]", "value": "drastically reduced levels of the androgen receptor at lower concentrations"}, {"measurement": "lowest concentration with minor neuroprotective effects", "setting": "[3]; Aβ 10 μM, 48 hours", "value": 0.5, "unit": "nM"}, {"measurement": "lowest concentration giving (significant) protection of neurons against Aβ", "setting": "[3]; Aβ 10 μM, compound added 2 hours before, viability at 48 hours", "value": 5, "unit": "nM"}, {"measurement": "EC50", "setting": "[3]; Rattus norvegicus, Primary cortical neuron, read-out: EC50, prevention of Aβ-induced toxicity, Aβ 10 μM, compound added 2 hours before, viability at 48 hours", "value": "~6", "unit": "nM"}, {"measurement": "EC50", "setting": "[3]; read-out: EC50, prevention of Aβ-induced toxicity, Aβ 10 μM, compound added 2 hours before, viability at 48 hours", "value": 5, "unit": "nM"}]}
